Measured values taken from patent US20110039333A1, “DEFINED CONDITIONS FOR HUMAN EMBRYONIC STEM CELL CULTURE AND PASSAGE” (UNIVERSITY OF SOUTHERN CALIFORNIA, priority 2009, published 2011).

Assays:
hESC [1] = assay: Xeno-free, feeder-free hESC culture (minimal medium development); assay type: cell-based, human; details: for maintenance of hESCs, Wnt ligand replaced by GSK-3 inhibitor: ID-8 containing medium
Description: (§1) For xeno-free, feeder-free culture, the cells were passaged into 2 μg/cm^2 human Fibronectin (Sigma), 10-20 μg/cm^2 human Laminin (Sigma) and 10 μg/cm^2 human Vitronectin (Invitrogen)-coated culture dishes and cultured in DMEM/F-12 supplement with L-glutamine, a non-essential amino acid, ITS, 20-25 ng/ml Wnt3a and 500 nM ID-8, and with or without 4 ng/ml FGF2. The culture medium was changed daily. Some of colonies became detached from the edge region 5 to 7 days after culturing, and then cells were treated with 0.5 mg/ml GRGDTP peptides (AnaSpec) or 1 μg/ml Echistatin (Sigma) and incubated at 37° C. for 15-45 minutes until almost all of the colony starts to detach from the edge region. The colonies were detached and partially dissociated into clumps by gentle pipetting, and then the clumps were washed with culture medium, collected by centrifugation and seeded on new dishes as 1 to 2 split ratio.
The development of a xeno-free, feeder-free hESC culture system using ID-8 and Wnt activation was investigated. After extensive investigation, the inventors determined that the minimal media required to maintain hESC proliferation and pluripotency consisted of DMEM/F-12 with bFGF (4 ng/ml), Wnt3a (25 ng/ml), ID-8 (0.5 μM) and Insulin-Transferrin-Selenium (ITS). […] The inventors next sought to replace the Wnt ligand with several small molecule GSK-3 inhibitors, BIO (11), CHIR99021 (22) and Kenpaullone (23) in ID-8 containing medium with or without bFGF. […] However, in contrast to Wnt ligand containing medium, hESCs became unstable after few passages, subsequently stabilized and maintained pluripotent cores were surrounded with spontaneously differentiated cells (FIG. 5). Under these conditions, manually selection of undifferentiated hESC colonies from the surrounding cells was required at every passage to maintain pluripotent cultures.
(§2) Initially, cells were maintained on Matrigel, a complex animal derived ECM. However, it would be advantageous to use a defined xeno-component-free ECM. […] Because of the extremely low level of protein in these cultures (i.e. no albumin and matrigel), the hESCs are extremely sensitive to damage caused by the dissociation enzymes normally used for passaging. […] To develop a compatible passaging process, the inventors investigated several integrin antagonists.

HES2 cells = assay: Clonal proliferation assay, HES2 cells in MEF-CM; assay type: cell-based, human; details: for effect on hESC survival, self-renewal and differentiation: supplement in MEF-CM, colony morphology
Description: The clonal proliferation assay was described previously. Briefly, the hES cells in feeder-free culture were dissociated completely with 0.05% trypsin-EDTA.(Invitrogen), and are seeded at 10^4 cells/well in Matrigel-coated 6-well culture plates and cultured in MEF-conditioned medium. Various concentration of Wnt3a (purified in our laboratory or purchased from Peprotech), IQ-1, ID-8 and/or ICG-001 (all three chemicals were synthesized in our laboratory), were supplemented into the culture media at the onset of seeding, then continuously until the end of culturing. For all assays, the cell and colony morphology were examined under microscope, and the replating efficiency was examined by counting the number of colonies after 7 days of culture.
For quantitative PCR analysis, total RNA was isolated from hESCs cultured in feeder-free condition with or without Wnt3a and Id-8 using RNeasy micro kit (Qiagen). RT was performed with Omniscript (Qiagen) and quantitative RT-PCR was then performed, using each gene-specific primer/probe mix (TaqMan Gene Expression Assays), TaqMan 2× Master Mix, and ABI PRISM 7900 Sequence Detection system (Applied Biosystems, CA) according manufacture's protocol. The PCR data was analyzed by delta/delta OT method and normalized with PPIA expression.
The hESC colonies were fixed with 4% paraformaldehyde, and alkaline phosphatase (ALP) activity was determined with a Vector Blue Alkaline Phosphatase Substrate Kit (Vector Laboratories, CA). Immunostaining was carried out with the following primary antibodies: TRA-1-60 and TRA-1-80 (Santa Cruz Biotechnology, CA), anti-stage specific embryonic antigen (SSEA)-3 and -4 (Developmental Studies Hybridoma Bank at the University of Iowa), anti-OCT-3 (clone C-10, Santa Cruz Biotechnology, CA), or goat anti-Nanog (R&D systems, MN). Then, samples were incubated with Alexa Fluor 488- or 594-conjugated (Molecular Probes, NY), then detected with indirect immunofluorscence microscopy.
The effects of canonical Wnt ligand, Wnt3a and several small molecule Wnt signaling modulators in a clonal proliferation assay were investigated first (9) (FIG. 3A). When HES2 cells (2) were dissociated into single cells and seeded on Matrigel-coated plates in mouse embryonic fibroblast-conditioned medium (MEF-CM)(20), the colony forming efficiency was ˜0.6% (replating efficiency: colony number/seeded cell number). Supplementation with Wnt3a enhanced colony formation (˜1% at 100 ng/ml). The colonies were larger and consisted of more cells. […] ID-8, which was identified in the same screen as IQ-1 (21), also enhances the β-catenin/CBP association and increased hESC survival (˜1.1% at 0.5 μM). […] To examine the scope of this effect in hESC, clonal proliferation assays were performed with the additional hESC lines, HES3 (2) and H9 (1) (FIG. 3H).

DYRK2 = biological target: T1, DYRK2 (Homo sapiens, UniProt Q92630); assay: ID-8 affinity chromatography / pull-down with biotinylated ID-8, competition by free ID-8; assay type: binding; details: cell lysates; competition with free ID-8
T1 construct: endogenous in cells
T1 sequence (Q92630 1-601): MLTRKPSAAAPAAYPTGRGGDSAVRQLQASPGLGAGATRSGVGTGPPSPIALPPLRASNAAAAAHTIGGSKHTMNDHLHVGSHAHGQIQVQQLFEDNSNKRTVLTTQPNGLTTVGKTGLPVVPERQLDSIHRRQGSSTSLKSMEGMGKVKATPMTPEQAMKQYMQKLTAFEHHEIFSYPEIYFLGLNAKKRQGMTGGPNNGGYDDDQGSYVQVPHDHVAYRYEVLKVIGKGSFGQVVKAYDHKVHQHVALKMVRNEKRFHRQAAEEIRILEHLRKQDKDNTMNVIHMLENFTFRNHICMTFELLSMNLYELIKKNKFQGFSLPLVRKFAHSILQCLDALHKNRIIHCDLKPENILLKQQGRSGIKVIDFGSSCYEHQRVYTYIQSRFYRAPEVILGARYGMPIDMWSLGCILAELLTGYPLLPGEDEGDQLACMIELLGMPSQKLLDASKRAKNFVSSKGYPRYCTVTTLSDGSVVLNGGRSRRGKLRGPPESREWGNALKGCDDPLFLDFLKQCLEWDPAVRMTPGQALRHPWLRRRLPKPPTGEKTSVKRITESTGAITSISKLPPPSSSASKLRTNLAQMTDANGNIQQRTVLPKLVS
Description: (§3) The cells were washed twice with 5 mL of ice-old PBS and scraped using 1 mL of PBS containing protease inhibitor cocktail (Calbiochem 539137). The cells were collected by centrifugation and the cell pellet was frozen and stocked with liquid nitrogen. Total 2 g of cell pellet was thawed on ice and then suspended in 20 mL of chilled M-Per (Pierce 78501) buffer containing 1 mM DTT and the protease inhibitor cocktail. The cell suspension was mixed and lysed on a nutator (BD Diagnostics) for 30 minutes at 4° C. The lysate was then centrifuged at 10,000 rpm for 30 minutes at 4° C., and the supernatant was divided into two equal aliquots in 50 mL centrifuge tubes. […]
(§4) After pre-treatment with free competitor ID-8 or DMSO control, the streptayidin-sepharose bound with biotinylated ID-8 was applied on the lysates. […] The specific bands lost by competitor free ID-8 was analyzed by LC/MS (LTQ-XL, Thermo Scientific).
(§5) The elution was also analyzed by or western blotting with specific antibodies against DYRK1a (Cell Signaling 2771), DYRK2 (Abeam ab37912), DYRK3 (Santa Cruz sc-66868), DYRK4 (Abeam ab37911), or HIP2K (Santa Cruz sc-100383).
(§6) ID-8 (FIG. 4A) can enhance β-catenin/CBP-mediated transcription, however, its direct molecular target(s) remained unidentified. […] To confirm this, the inventors designed miRNA to target the DYRK family and evaluated them after transfection by immunoblotting (FIG. 4D-E). […]

DYRK4 = biological target: T2, DYRK4 (Homo sapiens, UniProt Q9NR20); assay: ID-8 pull-down, western blotting with DYRK family antibodies; assay type: binding; details: western blotting of precipitated proteins
T2 construct: endogenous in cells
T2 sequence (Q9NR20 1-520): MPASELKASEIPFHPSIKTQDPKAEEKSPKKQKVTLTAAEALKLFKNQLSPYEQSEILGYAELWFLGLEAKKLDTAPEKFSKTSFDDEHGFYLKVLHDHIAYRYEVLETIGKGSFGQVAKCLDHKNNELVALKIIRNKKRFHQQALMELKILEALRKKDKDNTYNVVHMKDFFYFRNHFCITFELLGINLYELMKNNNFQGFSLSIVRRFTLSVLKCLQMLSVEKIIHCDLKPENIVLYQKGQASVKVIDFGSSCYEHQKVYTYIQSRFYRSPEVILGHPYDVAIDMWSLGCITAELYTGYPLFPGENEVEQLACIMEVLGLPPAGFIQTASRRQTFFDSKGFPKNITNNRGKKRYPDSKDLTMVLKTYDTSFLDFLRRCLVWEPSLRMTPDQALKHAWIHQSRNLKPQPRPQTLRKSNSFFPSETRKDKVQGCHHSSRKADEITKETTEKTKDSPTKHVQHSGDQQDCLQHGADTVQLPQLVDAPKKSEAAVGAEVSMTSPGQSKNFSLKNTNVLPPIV
Description: as §3, §4, §5, §6

hESC [2] = assay: Passaging by integrin antagonists (colony detachment); assay type: cell-based, human; details: xeno-free medium, FLV-coated dishes
Description: as §1, §2

Molecule: Cc1c[nH]c(-c2cnc(NCCNc3ccc(C#N)cn3)nc2-c2ccc(Cl)cc2Cl)n1 [CHIR90021]
- maintenance of hESCs, Wnt ligand replaced by GSK-3 inhibitor (hESC [1]; 0.2 μM plus bFGF): could maintain hESCs

Molecule: O=C1[C@H](Cc2ccc(O)cc2)N2C(=O)CCN(C(=O)NCc3ccccc3)[C@H]2CN1Cc1cccc2ccccc12 [ICG-001]
- effect on hESC survival, self-renewal and differentiation (HES2 cells): strongly induced cell differentiation and death

Molecule: COc1ccc(-n2c(C)c([N+](=O)[O-])c3ccc(O)cc32)cc1 [ID-8]
- replating efficiency (colony number/seeded cell number), hESC survival (HES2 cells; ID-8 at 0.5 μM, single cells on Matrigel in MEF-CM, control ~0.6%): ~1.1%
- binding of DYRK2 to ID-8 affinity column (DYRK2): competed away by free ID-8
- DYRK4 in proteins precipitated with biotinylated ID-8 (DYRK4): identified not only DYRK2 but also DYRK4
- maintenance of hESC colonies (hESC [1]; minimal medium (DMEM/F-12, bFGF, Wnt3a, ITS) without ID-8): no colonies were maintained

Molecule: CC(=O)c1ccc(NN=C(C(N)=O)C2=NC(C)(C)Cc3ccccc32)cc1 [IQ-1]
- effect on Wnt-induced differentiation (HES2 cells; in presence of Wnt3a, MEF-CM): somewhat prevented Wnt-induced differentiation
- effect on hESC survival, self-renewal and differentiation (HES2 cells): did not significantly affect hESC self-renewal by itself

Molecule: O=C1Cc2c([nH]c3ccc(Br)cc23)-c2ccccc2N1 [Kenpaullone]
- maintenance of hESCs, Wnt ligand replaced by GSK-3 inhibitor (hESC [1]; 0.5 μM plus bFGF): could maintain hESCs
- maintenance of hESCs, Wnt ligand replaced by GSK-3 inhibitor (hESC [1]; 1.0 μM plus bFGF): could maintain hESCs
- maintenance of hESCs, Wnt ligand replaced by GSK-3 inhibitor (hESC [1]; 1.0 μM without bFGF): could maintain hESCs

Molecule: Echistatin
- colony detachment and passage of hESC (hESC [2]): effectively caused colony detachment

Molecule: bFGF: basic fibroblast growth factor, recombinant FGF2 (Peprotech)
- hESC morphology and proliferation (hESC [1]; bFGF removed from minimal medium): proliferation was significantly diminished

B1: Wnt3a: canonical Wnt ligand protein, purified in the laboratory or purchased from Peprotech (protein, UniProt P56704 19-352, looked up)
Protein Wnt-3a: SYPIWWSLAVGPQYSSLGSQPILCASIPGLVPKQLRFCRNYVEIMPSVAEGIKIGIQECQHQFRGRRWNCTTVHDSLAIFGPVLDKATRESAFVHAIASAGVAFAVTRSCAEGTAAICGCSSRHQGSPGKGWKWGGCSEDIEFGGMVSREFADARENRPDARSAMNRHNNEAGRQAIASHMHLKCKCHGLSGSCEVKTCWWSQPDFRAIGDFLKDKYDSASEMVVEKHRESRGWVETLRPRYTYFKVPTERDLVYYEASPNFCEPNPETGSFGTRDRTCNVSSHGIDGCDLLCCGRGHNARAERRREKCRCVFHWCCYVSCQECTRVYDVHTCK
- replating efficiency (colony number/seeded cell number) (HES2 cells; Wnt3a at 100 ng/ml, single cells on Matrigel in MEF-CM, control ~0.6%): ~1%
- effect on hESC survival, self-renewal and differentiation (HES2 cells): enhances hESC survival and proliferation but also induces differentiation
